The nature of this data set: Human HepG2 cell viability assay in 384 well format. It counts as toxicity, cell-based. Also noted: dose 125 nL, time 70.5 hour; cytotoxicity at 70.5 h: concentration not given beside the values. As to conditions: HepG2 cells, read-out: Inhibition.

Experimental findings from ChEMBL document CHEMBL3507680, “University of Dundee, Gates Library screen for HepG2 cell viability” are described below.

Regarding `Cc1ccccc1OCCN1CCCC(c2cc(C(N)=O)[nH]n2)C1` (configuration not stated), the cytotoxicity at 70.5 h was -6.71%.

As to `Cc1cccc(OCCN2CCCC(c3cc(C(N)=O)[nH]n3)C2)c1` (configuration not stated), the cytotoxicity at 70.5 h is -7.94%. Regarding `Cc1cc(NC(=O)CN2CCCC2c2noc(C)n2)n(C(C)(C)C)n1` (configuration not stated), the cytotoxicity at 70.5 h was -7.96%. `Cc1nc(C(=O)N2CCCC2c2cnn(C)c2)ccc1C#N` (configuration not stated): the cytotoxicity at 70.5 h was determined as 20.3%.

For `CC(O)CN1CCN(C(=O)c2sccc2C2CC2)CC1` (configuration not stated), the cytotoxicity at 70.5 h is -5.67%. As to `COC(=O)CC(NC(=O)c1ccc(OC)cc1OC)c1cccs1` (configuration not stated), the cytotoxicity at 70.5 h is -11.2%. Regarding `COc1ccc(C(=O)NC(CC(=O)O)c2cccs2)c(OC)c1` (configuration not stated), the cytotoxicity at 70.5 h was -11.6%. For `COc1cccc(C(=O)NC(CC(=O)O)c2cccs2)c1OC` (configuration not stated), the cytotoxicity at 70.5 h is -9.47%. For the molecule `NC(=O)C1CCCN(c2ccc(CNC(=O)c3cnsn3)cc2)C1` (configuration not stated), the cytotoxicity at 70.5 h was -7.99%. On to `NC(=O)C1CCCN(c2ccc(CNC(=O)c3csnn3)cc2)C1` (configuration not stated), for which the cytotoxicity at 70.5 h is -6.98%. Take `CCn1cnnc1CNC(=O)N1CCC(CN2CCCCCC2)CC1`: the cytotoxicity at 70.5 h was -7.73%. With `CCn1cnnc1CNC(=O)N1CCC(CN2CCOCC2)CC1` the figure was -14.7%. On to `Cc1cnn(CC2CN(CC(=O)NCc3ccco3)CCO2)c1` (configuration not stated), for which the cytotoxicity at 70.5 h is -15.3%. Take `Cc1cnn(CC2CN(CC(=O)NCc3ccc(C)s3)CCO2)c1` (configuration not stated): the cytotoxicity at 70.5 h was -13.6%. Turning to `Cc1cnn(CC2CN(CC(=O)Nc3ccnn3C(C)C)CCO2)c1` (configuration not stated), the cytotoxicity at 70.5 h was -6.91%.

Regarding `Cc1nc(C)n(CC2CCCN2Cc2nc(C)c3ccccc3n2)n1` (configuration not stated), the cytotoxicity at 70.5 h is -7.3%.

On to `O=C(O)CC(NC(=O)c1ccccc1OC(F)F)c1cccs1` (configuration not stated), for which the cytotoxicity at 70.5 h is 2.5%. `COc1c(C2CCCN2C(=O)c2ccc(C#N)c(C)n2)c(C)nn1C` (configuration not stated): the cytotoxicity at 70.5 h is -8.97%. As for `COc1c(C2CCCN2Cc2nc(C3CC3)no2)c(C)nn1C` (configuration not stated), the cytotoxicity at 70.5 h is 9.69%. With `Cc1noc(CCCC(=O)NC(C)c2ccccn2)n1` (configuration not stated), the cytotoxicity at 70.5 h is -0.329%.

On to `COc1c(CNCc2cnn(C)c2)c(C(C)C)nn1C`, for which the cytotoxicity at 70.5 h was determined as 7.69%. As to `CN(CC(=O)N(C)C1CCCCC1)C1CCc2ccccc21` (configuration not stated), the cytotoxicity at 70.5 h was -3.54%.

Turning to `Cc1c(C(=O)NC(CN2CCCC2=O)c2ccccc2)cnn1C` (configuration not stated), the cytotoxicity at 70.5 h is 0.932%. For `CCN(Cc1ccc(OC)c(F)c1)C(=O)c1ccc(C)[nH]c1=O`, the cytotoxicity at 70.5 h was -3.76%. Consider `CC(C)(C)n1cc(C(=O)N2CCN(Cc3ccccc3F)CC2)cn1`, for which the cytotoxicity at 70.5 h was determined as 5.09%. As for `CC(=O)N1CCN(C(=O)CCOc2ccc(C(C)C)cc2)CC1`, the cytotoxicity at 70.5 h was -3.31%.

On to `Cc1nc(-c2ccsc2)ccc1C(=O)NCCC1CCCO1` (configuration not stated), for which the cytotoxicity at 70.5 h worked out at 28.6%. As for `CNC(=O)NC(=O)CN1CCC(c2cccc(F)c2)C1` (configuration not stated), the cytotoxicity at 70.5 h is -4.22%. With `Cc1cc(NC(=O)CN2CCn3c(nnc3C3CC3)C2)n(C)n1` the figure was 7.81%. Turning to `CNc1nc(CNC(=O)Nc2cccc(F)c2C)cs1`, the cytotoxicity at 70.5 h is -7.06%. Consider `Cc1noc(CCCC(=O)NC(C)c2cn(-c3ccccc3)nn2)n1` (configuration not stated), for which the cytotoxicity at 70.5 h was -3%.

With `CNc1nc(CNC(=O)Nc2ccccc2-c2noc(C)n2)cs1`, the cytotoxicity at 70.5 h amounted to 7.32%. Take `COc1c(CNCc2ccc(CN(C)C)cc2)c(C(C)C)nn1C`: the cytotoxicity at 70.5 h is 2.15%. With `Cc1noc(C)c1CCC(=O)N1CCCN(Cc2cscn2)CC1`, the cytotoxicity at 70.5 h was -2.08%. Turning to `OC(COCc1ccccc1Cl)CN1CC(n2cccn2)C1` (configuration not stated), the cytotoxicity at 70.5 h was 4.22%. The same measure for `Cc1ncc(CNC2CCCN(Cc3noc(C4CC4)n3)C2)s1` (configuration not stated): -2.63%; for `Cc1cc2n(n1)CC(CNCc1cnn(-c3ccccc3)c1)CN2` (configuration not stated): -3.87%; for `O=C(Cc1ccc2c(c1)OCO2)N1CCN(c2cnccn2)CC1`: -8.46%.

Consider `CCOc1ccccc1OC1CCN(C(=O)c2nc(=O)[nH][nH]2)CC1`, for which the cytotoxicity at 70.5 h amounted to 27.9%. On to `CC(C)Oc1ncccc1CNC(=O)C1CCCN(C(=O)C2CC2)C1` (configuration not stated), for which the cytotoxicity at 70.5 h amounted to 6.38%. Regarding `c1cnn(CC2CN(Cc3nc(-c4ccsc4)no3)CCO2)c1` (configuration not stated), the cytotoxicity at 70.5 h was -16.6%. As for `O=C(c1ccc(NC2CC2)nc1)N1CCCC(n2cccn2)C1` (configuration not stated), the cytotoxicity at 70.5 h is -4.81%.

In the case of `CCOc1ccccc1C(CC(=O)Nc1ccc(C)cn1)NC(C)=O` (configuration not stated), the cytotoxicity at 70.5 h is -9.08%. For `Cc1ccc(N2CCCN(C(=O)C3(C#N)CCCCC3)CC2)nn1`, the cytotoxicity at 70.5 h is -0.352%.

Consider `CCc1ccc(C(=O)N2CCN(CCS(C)(=O)=O)CC2)o1`, for which the cytotoxicity at 70.5 h is -14.1%. As for `COc1ccc(OC)c(C(O)CN2CC(n3cccn3)C2)c1` (configuration not stated), the cytotoxicity at 70.5 h is -9.37%. The same measure for `Cc1ncc(CN(C)C2CCCN(Cc3noc(C4CC4)n3)C2)s1` (configuration not stated): -12.3%; for `CC(C)c1ncc2c(n1)CN(Cc1cccc(OCC(N)=O)c1)CC2`: -7.58%; for `CC(C)c1nc(C2CCCN2CC(=O)N2CCc3ccccc32)no1` (configuration not stated): -3.85%. For the molecule `Cc1csc(N2CCCN(C(=O)C3(C#N)CCCCC3)CC2)n1`, the cytotoxicity at 70.5 h was -9.35%. Consider `CC(C)c1nc(C2CCCN2CC(=O)N2CCNC2=O)no1` (configuration not stated), for which the cytotoxicity at 70.5 h was -3.44%. In the case of `CC(C)c1csc(C2CCCN(C(=O)Cn3ccccc3=O)C2)n1` (configuration not stated), the cytotoxicity at 70.5 h is 23.3%. Turning to `CC(C)c1ncc2c(n1)CN(Cc1cccc(C#N)c1)CC2`, the cytotoxicity at 70.5 h amounted to 4.14%. `CCc1nc(C2CCCN(C(=O)CCn3ccccc3=O)C2)no1` (configuration not stated): the cytotoxicity at 70.5 h is -0.684%. Turning to `CCn1ccnc1CN1CCN(CCOc2ccccc2OC)CC1`, the cytotoxicity at 70.5 h is 7.36%. With `Cc1cnc(CN(C)C2CCN(CC(=O)N(C)c3nccs3)C2)o1` (configuration not stated) the figure was 42.1%. With `Cc1cnc(CN(C)C2CCN(CC(=O)Nc3c(C)n[nH]c3C)C2)o1` (configuration not stated) the figure was 11.7%; with `Cc1cc(CN(C)C(=O)c2cccc(N3CCCC3=O)c2)no1`, -9.25%; with `O=C(Nc1ccccc1OC(F)F)C1=NN(c2ccccc2)C(=O)CN1`, -8.48%.

With `CC(Cn1cccn1)NC(=O)NCCc1ccc(Cl)s1` (configuration not stated), the cytotoxicity at 70.5 h is -5.79%. Take `Cc1ccc(OCCNC(=O)C(C)n2cncn2)cc1` (configuration not stated): the cytotoxicity at 70.5 h is 10.5%. The same measure for `OC(COCc1cccs1)CN1CCC(c2ccn[nH]2)CC1` (configuration not stated): -17.6%. The same measure for `COC(=O)c1ccc(N2CCN(C(=O)c3ccncc3)C(C)C2)cc1` (configuration not stated): 15.3%. The same measure for `CC(NC(=O)N1CCC(n2cncn2)CC1)c1ccc(F)cc1F` (configuration not stated): -13.6%; for `Cc1nc(CN2CCCN(C(=O)C3(C#N)CCCCC3)CC2)cs1`: -16.4%; for `O=C(NCCNc1ncccn1)N(Cc1ccc(F)cc1F)C1CC1`: -18.1%.

`CN(C)C(=O)N1CCN(Cc2noc(Cc3ccccc3)n2)CC1`: the cytotoxicity at 70.5 h is -5.82%. Take `O=C(CCCOCc1ccccc1)N1CCCC1c1ccccn1` (configuration not stated): the cytotoxicity at 70.5 h was -12.6%. `Cn1cc(C2CCCN2C(=O)CCCOCc2ccccc2)cn1` (configuration not stated): the cytotoxicity at 70.5 h worked out at 4.25%.

As for `CCc1nc2n(n1)CC(NCC(=O)Nc1nccs1)CC2` (configuration not stated), the cytotoxicity at 70.5 h stood at 8%. On to `O=C(CN1CCCCC1Cn1cncn1)NCCc1ccc(F)cc1` (configuration not stated), for which the cytotoxicity at 70.5 h is 32.1%. With `CCN(C(=O)CS(=O)(=O)Cc1cc(Cl)c2c(c1)OCCCO2)C1CC1` the figure was 0.0743%.
